Measured values as given in patent publication US11708348B2, “Protease inhibitors for treatment of coronavirus infections” (The Scripps Research Institute, priority 2021, dated 2023).

Test system: SARS-CoV-2 strain USA-WA1/2020
Experiment: microbe, parasite or virus in culture
Format: cell-based
Details: Severe acute respiratory syndrome coronavirus 2, HeLa-ACE2, 24 h, HeLa-ACE2 cells, SARS-CoV-2 infection, 24 h; class symbols; read-out: EC50, uM (Hela)

| SMILES | EC50 |
| --- | --- |
| CC(C)C[C@H](NC(=O)C(=O)Nc1ccccc1)C(=O)N[C@@H](C[C@@H]1CCNC1=O)C(=O)COc1c(F)c(F)cc(F)c1F [Compound 10, N1-((S)-4-methyl-1-oxo-1-(((S)-3-oxo-1-((S)-2-oxopyrrolidin-3-yl)-4-(2,3,5,6-tetrafluorophenoxy)butan-2-yl)amino)pentan-2-yl)-N2-phenyloxalamide] | < 0.05 µM |
| CC(C)C[C@H](NC(=O)C(=O)N[C@H]1CCCc2ccccc21)C(=O)N[C@@H](C[C@@H]1CCNC1=O)C(=O)COc1c(F)c(F)cc(F)c1F [Compound 145, N^1—((S)-4-methyl-1-oxo-1-(((S)-3-oxo-1-((S)-2-oxopyrrolidin-3-yl)-4-(2,3,5,6-tetrafluorophenoxy)butan-2-yl)amino)pentan-2-yl)-N^2—((S)-1,2,3,4-tetrahydronaphthalen-1-yl)oxalamide] | 0.2 to 0.5 µM |
| CC[C@@H](O)C(=O)N1[C@H](C(=O)N[C@@H](C[C@@H]2CCNC2=O)C(=O)COC(F)(F)F)C[C@@H]2CCC[C@@H]21 [Compound 374, (2S,3aS,6aS)-1-((R)-2-hydroxybutanoyl)-N-((S)-3-oxo-1-((S)-2-oxopyrrolidin-3-yl)-4-(trifluoromethoxy)butan-2-yl)octahydrocyclo-penta[b]pyrrole-2-carboxamide] | 0.5 to 1 µM |
| O=C1NCC[C@H]1C[C@H](NC(=O)[C@@H]1CC2(CC2)CN1C(=O)[C@H](O)CC1CC1)C(=O)COC(F)(F)F [Compound 392, (S)-5-((R)-3-cyclopropyl-2-hydroxypropanoyl)-N-((S)-3-oxo-1-((S)-2-oxopyrrolidin-3-yl)-4-(trifluoromethoxy)butan-2-yl)-5-azaspiro[2.4]heptane-6-carboxamide] | 0.05 to 0.2 µM |
| CC(C)C[C@@H](OC(F)F)C(=O)N1CC2(CC2)C[C@H]1C(=O)N[C@@H](C[C@@H]1CCNC1=O)C(=O)COC(F)(F)F [Compound 333, (S)-5-((R)-2-(difluoromethoxy)-4-methylpentanoyl)-N—((S)-3-oxo-1-((S)-2-oxopyrrolidin-3-yl)-4-(trifluoromethoxy)butan-2-yl)-5-azaspiro[2.4]heptane-6-carboxamide] | < 0.05 µM |
| CC(C)C[C@H](NC(=O)C1COCCO1)C(=O)N[C@@H](C[C@@H]1CCNC1=O)C(=O)COC(F)(F)F (stereo partly drawn) [Compound 247, N-((S)-4-methyl-1-oxo-1-(((S)-3-oxo-1-((S)-2-oxopyrrolidin-3-yl)-4-(trifluoromethoxy)butan-2-yl)amino)pentan-2-yl)-1,4-dioxane-2-carboxamide] | 0.05 to 0.2 µM |

Same assay, conditions: Severe acute respiratory syndrome coronavirus 2, HeLa-ACE2, 24 h, HeLa-ACE2 cells, SARS-CoV-2 infection, 24 h; given as bound; read-out: EC50, uM (Hela)

| SMILES | EC50 |
| --- | --- |
| O=C(NC12CC(F)(C1)C2)C(=O)N[C@]1(C(=O)N[C@@H](C[C@@H]2CCNC2=O)C(=O)COC(F)(F)F)C[C@H]1C1CC1 [Compound 579, N1-(3-fluorobicyclo-[1.1.1]pentan-1-yl)-N2-((1S,2R)-2-(((S)-3-oxo-1-((S)-2-oxopyrrolidin-3-yl)-4-(trifluoromethoxy)butan-2-yl)carbamoyl)-[1,1′-bi(cyclopropan)]-2-yl)oxalamide] | > 1 µM |

Same assay, conditions: Severe acute respiratory syndrome coronavirus 2, HeLa-ACE2, 24 h, HeLa-ACE2 cells, SARS-CoV-2 infection, 24 h; read-out: EC50, uM (Hela)

| SMILES | EC50 |
| --- | --- |
| CC(C)(C)NC(=O)C(=O)N1C[C@@H]2CC[C@@H]2[C@H]1C(=O)N[C@@H](C[C@@H]1CCNC1=O)C(=O)COC(F)(F)F [Compound 561, (1S,2S,5R)-3-(2-(tert-butylamino)-2-oxoacetyl)-N-((S)-3-oxo-1-((S)-2-oxopyrrolidin-3-yl)-4-(trifluoromethoxy)butan-2-yl)-3-azabicyclo-[3.2.0]heptane-2-carboxamide] | 0.2 to 0.5 µM |
| CC1(C)[C@@H]2[C@@H](C(=O)N[C@H](C[C@@H]3CCNC3=O)C(=O)COC(F)(F)F)N(C(=O)[C@H](O)c3ccccc3)C[C@@H]21 [Compound 715, (1R,2S,5S)-3-((R)-2-hydroxy-2-phenylacetyl)-6,6-dimethyl-N-((R)-3-oxo-1-((S)-2-oxopyrrolidin-3-yl)-4-(trifluoromethoxy)butan-2-yl)-3-azabicyclo[3.1.0]hexane-2-carboxamide] | 0.05 to 0.2 µM |
| C=CCC(=O)N1CC2(CC2)C[C@H]1C(=O)N[C@@H](C[C@@H]1CCNC1=O)C(=O)COC(F)(F)F [Compound 689, (S)-5-(but-3-enoyl)-N-((S)-3-oxo-1-((S)-2-oxopyrrolidin-3-yl)-4-(trifluoromethoxy)butan-2-yl)-5-azaspiro[2.4]heptane-6-carboxamide] | 0.05 to 0.2 µM |
| O=C1NCC[C@H]1C[C@H](NC(=O)[C@@H]1CC2(CC2)CN1C(=O)C1(O)CC1)C(=O)COC(F)(F)F [Compound 420, (S)-5-(l-hydroxycyclopropane-1-carbonyl)-N-((S)-3-oxo-1-((S)-2-oxopyrrolidin-3-yl)-4-(trifluoromethoxy)butan-2-yl)-5-azaspiro[2.4]heptane-6-carboxamide] | 0.05 to 0.2 µM |
| COC(=O)N[C@H](C(=O)N1CC2(CC2)C[C@H]1C(=O)N[C@@H](C[C@@H]1CCNC1=O)C(=O)COC(F)(F)F)C(C)(C)C [Compound 433, methyl ((S)-3,3-dimethyl-1-oxo-1-((S)-6-(((S)-3-oxo-1-((S)-2-oxopyrrolidin-3-yl)-4-(trifluoromethoxy)butan-2-yl)carbamoyl)-5-azaspiro[2.4]heptan-5-yl)butan-2-yl)carbamate] | 0.05 to 0.2 µM |
| CC(C)(F)c1cc(C(=O)N[C@@H](CC2CC2)C(=O)N[C@@H](C[C@@H]2CCNC2=O)C(=O)COC(F)(F)F)no1 [Compound 490, N-((S)-3-cyclopropyl-1-oxo-1-(((S)-3-oxo-1-((S)-2-oxopyrrolidin-3-yl)-4-(trifluoromethoxy)butan-2-yl)amino)propan-2-yl)-5-(2-fluoropropan-2-yl)isoxazole-3-carboxamide] | < 0.05 µM |
| CC(C)(NC(=O)C(=O)N1CC2(CC2)C[C@H]1C(=O)N[C@@H](C[C@@H]1CCNC1=O)C(=O)COC(F)(F)F)C(F)(F)F [Compound 590, (S)-N-((S)-3-oxo-1-((S)-2-oxopyrrolidin-3-yl)-4-(trifluoromethoxy)butan-2-yl)-5-(2-oxo-2-((1,1,1-trifluoro-2-methylpropan-2-yl)amino)acetyl)-5-azaspiro[2.4]heptane-6-carboxamide] | 0.05 to 0.2 µM |
| O=C(Nc1ccccc1F)C(=O)N1CC2(CCOCC2)CC1C(=O)N[C@@H](C[C@@H]1CCNC1=O)C(=O)COC(F)(F)F (stereo partly drawn) [Compound 530, 2-(2-((2-fluorophenyl)amino)-2-oxoacetyl)-N-((S)-3-oxo-1-((S)-2-oxopyrrolidin-3-yl)-4-(trifluoromethoxy)butan-2-yl)-8-oxa-2-azaspiro[4.5]decane-3-carboxamide] | 0.5 to 1 µM |
| O=C1NCC[C@H]1C[C@H](NC(=O)[C@@H]1[C@H]2CCC[C@H]2CN1C(=O)c1noc2cc(Cl)ccc12)C(=O)COC(F)(F)F [Compound 783, (1S,3aR,6aS)-2-(6-chlorobenzo[d]isoxazole-3-carbonyl)-N-((S)-3-oxo-1-((S)-2-oxopyrrolidin-3-yl)-4-(trifluoromethoxy)butan-2-yl)octahydrocyclopenta[c]pyrrole-1-carboxamide] | < 0.05 µM |

Same assay, conditions: Severe acute respiratory syndrome coronavirus 2, HeLa-ACE2, 24 h; read-out: EC50, uM (Hela)

| SMILES | EC50 |
| --- | --- |
| CCNC(=O)O[C@@H](C(=O)N1CC2(CC2)C[C@H]1C(=O)N[C@@H](C[C@@H]1CCNC1=O)C(=O)COC(F)(F)F)C(C)(C)C [Compound 332, (R)-3,3-dimethyl-1-oxo-l-((S)-6-(((S)-3-oxo-1-((S)-2-oxopyrrolidin-3-yl)-4-(trifluoromethoxy)butan-2-yl)carbamoyl)-5-azaspiro[2.4]heptan-5-yl)butan-2-yl ethylcarbamate] | 0.5 to 1 µM |
